DBAASP
≈ marks a conversion by molar mass, not a printed value. One block for each compound: values may come before it.

Experiments:
Experiment in all cases: ≥ marks a high value that may be exact or a test limit, other limits are often not marked, values filed in µg/mL are converted to µM
Escherichia coli BL21 = test system: Escherichia coli BL21
[1] = test system: Pseudomonas aeruginosa PAO1
[2] = test system: Streptococcus pyogenes M1T1 5448
Escherichia coli MG1655 = test system: Escherichia coli MG1655
Klebsiella pneumoniae = test system: Klebsiella pneumoniae
[3] = test system: Escherichia coli DH5alpha
Staphylococcus aureus = test system: Staphylococcus aureus
[4] = test system: Staphylococcus aureus ATCC 6538
Escherichia coli = test system: Escherichia coli
[5] = test system: Micrococcus luteus ATCC 4698
Bacillus subtilis = test system: Bacillus subtilis
Salmonella typhimurium = test system: Salmonella typhimurium
[6] = test system: Staphylococcus epidermidis
[7] = test system: Staphylococcus epidermidis ATCC 12228
Pseudomonas aeruginosa = test system: Pseudomonas aeruginosa
Proteus mirabilis = test system: Proteus mirabilis
Shigella dysenteriae = test system: Shigella dysenteriae
Micrococcus luteus = test system: Micrococcus luteus
[8] = test system: Escherichia coli NCTC 10418

- MIC (Escherichia coli BL21): 2 µM (≈ 6.01 µg/mL)
- MIC [1]: 16 µM (≈ 48.1 µg/mL)
- MIC [2]: 4 µM (≈ 12 µg/mL)
SMILES: CC[C@H](C)[C@H](NC(=O)[C@H](CCCCN)NC(=O)CNC(=O)[C@H](Cc1ccccc1)NC(=O)[C@H](CCCCN)NC(=O)[C@H](CCCN=C(N)N)NC(=O)[C@H](CC(C)C)NC(=O)[C@H](Cc1ccc(O)cc1)NC(=O)[C@H](CCC(=O)O)NC(=O)[C@H](CC(C)C)NC(=O)[C@H](CC(C)C)NC(=O)[C@H](CCC(=O)O)NC(=O)[C@H](CCCCN)NC(=O)[C@@H](NC(=O)[C@H](CC(C)C)NC(=O)[C@H](CCCN=C(N)N)NC(=O)[C@H](CC(N)=O)NC(=O)[C@H](C)NC(=O)[C@H](CCCCN)NC(=O)[C@H](C)N)[C@@H](C)O)C(=O)N[C@@H](C)C(=O)N[C@@H](CCCN=C(N)N)C(=O)N[C@@H](CCCCN)C(=O)N[C@@H](C)C(=O)N[C@@H](Cc1c[nH]c2ccccc12)C(=O)O [AKANRLTKELLEYLRKFGKIARKAW]

- MIC (Escherichia coli MG1655): ≥ 128 µM
SMILES: CC[C@H](C)[C@H](NC(=O)[C@H](CCCCN)NC(=O)CNC(=O)[C@H](CC(C)C)NC(=O)[C@H](Cc1ccccc1)NC(=O)[C@H](CCC(N)=O)NC(=O)[C@H](Cc1ccccc1)NC(=O)[C@@H](N)C(C)C)C(=O)N[C@H](C(=O)N[C@@H](Cc1cnc[nH]1)C(=O)N[C@@H](Cc1cnc[nH]1)C(=O)N[C@H](C(=O)NCC(=O)N[C@@H](CC(N)=O)C(=O)N[C@@H](Cc1ccccc1)C(=O)N[C@H](C(=O)N[C@@H](C)C(=O)NCC(=O)N[C@@H](Cc1ccccc1)C(=O)N[C@@H](CO)C(=O)N[C@@H](Cc1cnc[nH]1)C(=O)N[C@H](C(=O)N[C@@H](Cc1ccccc1)C(N)=O)C(C)C)C(C)C)C(C)C)[C@@H](C)CC [VFQFLGKIIHHVGNFVAGFSHVF]

- MIC (Escherichia coli BL21): 16 µM (≈ 49 µg/mL)
- MIC [1]: > 128 µM
- MIC [2]: 4 µM (≈ 12.3 µg/mL)
SMILES: CC[C@H](C)[C@H](NC(=O)[C@H](Cc1ccccc1)NC(=O)[C@H](C)NC(=O)[C@H](CCCCN)NC(=O)[C@H](CCCCN)NC(=O)CNC(=O)[C@H](CCCN=C(N)N)NC(=O)[C@H](CCCCN)NC(=O)[C@H](CCCN=C(N)N)NC(=O)[C@H](CC(C)C)NC(=O)[C@H](CCC(=O)O)NC(=O)[C@H](CCC(=O)O)NC(=O)[C@H](CCCCN)NC(=O)[C@H](CC(C)C)NC(=O)[C@H](Cc1ccc(O)cc1)NC(=O)[C@H](CC(C)C)NC(=O)[C@@H](NC(=O)[C@H](CC(C)C)NC(=O)[C@H](C)NC(=O)[C@H](CCC(N)=O)NC(=O)[C@H](CCCN=C(N)N)NC(=O)CNC(=O)[C@H](C)N)[C@@H](C)O)C(=O)N[C@@H](Cc1c[nH]c2ccccc12)C(=O)N[C@@H](Cc1c[nH]c2ccccc12)C(=O)O [AGRQALTLYLKEELRKRGKKAFIWW]

- MIC (Klebsiella pneumoniae): 18 µM (≈ 25 µg/mL)
- MIC [3]: ≥ 194 µM
- MIC (Staphylococcus aureus): 2.23 µM (≈ 3.1 µg/mL)
- MIC [4]: 71.8 µM (≈ 100 µg/mL)
- MIC (Escherichia coli): 18 µM (≈ 25 µg/mL)
- MIC [5]: ≥ 35.9 µM
- MIC (Bacillus subtilis): 8.98 µM (≈ 12.5 µg/mL)
- MIC (Salmonella typhimurium): ≥ 71.8 µM
- MIC [6]: 2.23 µM (≈ 3.1 µg/mL)
- MIC [7]: 180 µM (≈ 250 µg/mL)
- MIC (Pseudomonas aeruginosa): 71.8 µM (≈ 100 µg/mL)
- MIC (Proteus mirabilis): ≥ 144 µM
- MIC (Shigella dysenteriae): 18 µM (≈ 25 µg/mL)
- MIC (Micrococcus luteus): 4.52 µM (≈ 6.3 µg/mL)
SMILES: CC(C)C[C@H](NC(=O)[C@@H](NC(=O)[C@H](CCCCN)NC(=O)[C@H](CO)NC(=O)[C@H](C)NC(=O)[C@@H](NC(=O)[C@H](CCCCN)NC(=O)[C@H](Cc1ccccc1)NC(=O)[C@H](CC(C)C)NC(=O)[C@H](C)NC(=O)CNC(=O)[C@H](CC(C)C)NC(=O)[C@@H](N)Cc1ccccc1)C(C)C)C(C)C)C(=O)O [FLGALFKVASKVL]

- MIC [5]: 0.6 µM (≈ 0.74 µg/mL)
SMILES: NCCCC[C@@H]1NC(=O)[C@H](CCCN=C(N)N)NC(=O)[C@H](CCCCN)NC(=O)[C@H](Cc2c[nH]c3ccccc23)NC(=O)[C@H](CCCCN)NC(=O)[C@H](CCCCN)NC(=O)[C@@H](N)CSSC[C@@H](C(=O)O)NC(=O)[C@H](CCCN=C(N)N)NC1=O [CKKWKRKRC]

- MIC [8]: 20 µM (≈ 38.3 µg/mL)
SMILES: CC[C@H](C)[C@H](NC(=O)[C@H](CC(N)=O)NC(=O)[C@@H](NC(=O)[C@H](C)N)C(C)C)C(=O)N1CCC[C@H]1C(=O)N[C@@H](Cc1ccccc1)C(=O)N[C@@H](CCCCN)C(=O)N[C@H](C(=O)N[C@@H](Cc1cnc[nH]1)C(=O)N[C@@H](CC(C)C)C(=O)N[C@@H](CCCN=C(N)N)C(=O)N[C@H]1CSSC[C@@H](C(=O)O)NC(=O)[C@H](Cc2ccccc2)NC(=O)[C@H](C)NC(=O)[C@H](C)NC(=O)[C@H](CCCCN)NC1=O)C(C)C [AVNIPFKVHLRCKAAFC]
